PMC5976863, “The Active Components of Fuzheng Huayu Formula and Their Potential Mechanism of Action in Inhibiting the Hepatic Stellate Cells Viability – A Network Pharmacology and Transcriptomics Approach” (Frontiers in Pharmacology, 2018)
Read-outs that look alike come from different tables or passages of the source.

Target: T1, peroxisome proliferator activator receptor gamma (PPARG) (Homo sapiens, UniProt P37231)
T1 sequence (P37231 1-505): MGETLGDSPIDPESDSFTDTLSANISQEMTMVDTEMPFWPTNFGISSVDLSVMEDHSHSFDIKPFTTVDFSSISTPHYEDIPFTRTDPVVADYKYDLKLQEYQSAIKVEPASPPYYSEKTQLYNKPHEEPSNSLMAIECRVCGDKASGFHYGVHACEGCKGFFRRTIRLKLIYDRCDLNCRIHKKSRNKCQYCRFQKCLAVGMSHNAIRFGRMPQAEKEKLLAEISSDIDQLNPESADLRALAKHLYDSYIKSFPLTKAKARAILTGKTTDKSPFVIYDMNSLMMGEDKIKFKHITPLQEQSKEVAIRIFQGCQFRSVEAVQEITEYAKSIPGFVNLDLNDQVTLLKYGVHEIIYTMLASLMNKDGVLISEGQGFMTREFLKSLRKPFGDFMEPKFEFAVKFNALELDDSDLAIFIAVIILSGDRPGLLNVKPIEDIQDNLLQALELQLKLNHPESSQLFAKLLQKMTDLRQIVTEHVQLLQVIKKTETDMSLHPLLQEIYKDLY
Experiment: SPR (Biacore T200), PPARG immobilized on CM5 chip
Assay type: binding

CCCCC/C=C/C=C1/C(=O)C=C[C@@H]1C/C=C\CCCC(=O)O [15d-PGJ2, reference compound]
Kd: 9.8 µM

O=c1c(O)c(-c2ccc(O)cc2)oc2cc(O)cc(O)c12 [Kaempferol]
Kd (read-out: Kd): 51 µM

O=C(/C=C/c1ccc(O)c(O)c1/C=C/c1ccc(O)c(O)c1)O[C@H](Cc1ccc(O)c(O)c1)C(=O)O [Salvianolic acid A]
Kd (read-out: Kd): 3.5 µM

COc1cc2c(c(OC)c1OC)-c1c(cc3c(c1OC)OCO3)CC(C)C(C)C2 (stereo not shown) [schisandrin B]
Kd (read-out: Kd): 22 µM
